Legend:
[1] = test system: middle cerebral artery ischemia-reperfusion model; experiment: Cerebroprotective action in middle cerebral artery ischemia-reperfusion model; assay type: in vivo, rat; conditions: for rotor rod test, ratio to before occlusion (%), Ave: reperfusion vs before occlusion
Description: CD(SD)IGS male rats (Japan Charles river Kabushiki kaisha, Hino farm, room No. 22, specific product) (8 rats per one group) having body weight 270 to 350 g were anesthetized by 2% isoflurane (mixed bas comprising of 70% N2O (laughter gas) and 30% O2) to immobilize, and then the rats were put on warming plate to keep the rectal and brain temperature 37 to 38° C. After that, to observe the stability in the examination, cannula which was made by polyethylene (PE-50, Becton Dickinson) was inserted and left in caudal artery of said animal, and this made blood drawing and blood pressure determining to monitor the biochemical parameter such as blood sugar level, hematocrit, CO2 concentration, oxygen partial pressure, pH, blood pressure and etc. In addition, cerebral blood flow in cortex was determined by laser doppler fluorometry (Neuroscience.inc: OMEGA FLOW (FLO-C1)), putting the detection site directly on cranium on the point left 4 mm from bregma. Left neck of such animal was incised, and from internal and external carotid fork of common carotid artery to upstream of internal carotid, nylon surgical thread (length 16 mm, diameter 0.2 to 0.3 mm, with silicon coating on its tip 3 mm) was passed and left, middle cerebral artery was obstructed for 2 hours. After that, the thread was removed to release the middle cerebral artery, and blood was reperfused for 21 hours. To each animals, 3.0 mg/kg of edaravone (control) and 5.58 mg/kg of TM-2002 were respectively administered twice by cannula which is left in caudal artery 5 minutes and 5 hours after middle cerebral artery occlusion. After said operation, the brain was removed from said animal, and after preparing 7 brain slices with 2 mm thickness, to TTC stain (0.8 g of 2,3,5-triphenyltetrazolium chloride (Sigma) dissolved in 40 ml of saline) were soaked at 37° C. for 15 minutes to stain, the area of infarction and fixed by 10% neutral formalin liquid to prepare specimen. Such specimens were created the image by CCD camera respectively, and analysed according to method of Swanson et al. (J Cereb Blood Flow Metab 10:290-293; 1994). […] Furthermore, function recovering was estimated before and after the operation by rotor rod test that estimates how much they can walk on rotating rotor.

pentosidine = experiment: Pentosidine production inhibiting effect with BSA and arabinose; assay type: biochemical; conditions: BSA and arabinose instead of plasma
Description: Fresh heparinized plasma samples were obtained after informed consent from hemodialysis patients prior to the dialysis session, and filtrated and sterilized. To the plasma (450 μL), there was added the solution of TM-2002 in dimethylsurphoxide (50 μL) (final concentration: 0.8, 2.0, 5.0 mM) incubated at 37° C. for one week. Then, the amount of pentosidine was measured.
Measurement of the amount of pentosidine was made as follows: to each incubated sample (50 μL) was added an equal volume of 10% trichloroacetic acid, followed by centrifugation at 5000 g for 5 minutes; after removal of the supernatant, the pellet was washed by 5% trichloroacetic acid (300 μL); the pellet was dried under reduced pressure and then subjected to hydrolysis in 6N HCl solution (100 μL) at 110° C. under nitrogen atmosphere for 16 hours; to the hydrolysate, 5N NaOH (100 μL) and 0.5 M phosphate buffer (pH 7.4) (200 μL) were added, followed by filtration through a porefilter with a pore size of 0.5 μm and dilution with PBS. The concentration of free pentosidine was determined by reversed-phase HPLC using a fluorescence detector (Miyata, T. et al.: Proc. Natl. Acad. Sci. USA, Vol. 93, p. 2353-2358, 1996). The effluent was monitored at 335/385 nm of excitation/emission wavelength. Synthetic pentosidine was used as the standard. The detection limit of pentosidine was 0.1 pmol/mg protein.
The plasma from patients was substituted to BSA and arabinose, and the pentosidine production inhibiting effect of another compounds (I) or (II) was measured in the same manner as [Test Examination 1]. Therein, “-” means that the examination was not carried out.

Row | SMILES | Pentosidine production rate in 5 mM of medicament (%) (pentosidine) | further results
1 | CC1=NN(c2ccccc2)C(=O)C1 [Edaravone, 3-methyl-1-phenyl-2-pyrazolin-5-one, reference compound] |  | cerebral infarction nest ([1]; 2 hours occlusion, 21 hours reperfusion, edaravone 3.0 mg/kg, TM-2002 5.58 mg/kg, twice (5 minutes and 5 hours after occlusion), vs excipient): significantly reduced; Nervous condition estimation test, Ave (grading system of Bederson et al.) ([1]; after occlusion 10 min): 2.8; Nervous condition estimation test, Ave (grading system of Bederson et al.) ([1]; after occlusion 2 hrs): 2.7; Nervous condition estimation test, Ave (grading system of Bederson et al.) ([1]; after reperfusion 10 min): 2.2; Nervous condition estimation test, Ave (grading system of Bederson et al.) ([1]; after reperfusion 3 hrs): 2.1; Nervous condition estimation test, Ave (grading system of Bederson et al.) ([1]; after reperfusion 4 hrs): 2.0; Nervous condition estimation test, Ave (grading system of Bederson et al.) ([1]; after reperfusion 22 hrs): 1.5; rotor rod test, Ave (reading value of count from rotor rod machine) ([1]; before occlusion): 197.0; improvement for nervous condition and recovering the function ([1]; compared to excipient single administration): remarkably shown; rotor rod test, Ave (reading value of count from rotor rod machine) ([1]; reperfusion): 153.1; rotor rod test, ratio to before occlusion (%), Ave [1]: 160.4%
2 | Cc1ncc2c(c1O)C(c1c(C)nn(-c3ccccc3)c1O)OC2 (stereo not drawn) [TM-3001, 1-(5-hydroxy-3-methyl-1-phenyl-1H-pyrazol-4-yl)-6-methyl-1,3-dihydro-furo[3,4-c]pyridin-7-ol] |  | Nervous condition estimation test, Ave (grading system of Bederson et al.) ([1]; after occlusion 10 min): 2.8; Nervous condition estimation test, Ave (grading system of Bederson et al.) ([1]; after occlusion 2 hrs): 2.6; Nervous condition estimation test, Ave (grading system of Bederson et al.) ([1]; after reperfusion 10 min): 1.5; Nervous condition estimation test, Ave (grading system of Bederson et al.) ([1]; after reperfusion 3 hrs): 1.3; Nervous condition estimation test, Ave (grading system of Bederson et al.) ([1]; after reperfusion 4 hrs): 2.0; Nervous condition estimation test, Ave (grading system of Bederson et al.) ([1]; after reperfusion 22 hrs): 2.0; rotor rod test, Ave (reading value of count from rotor rod machine) ([1]; before occlusion): 183.4; rotor rod test, Ave (reading value of count from rotor rod machine) ([1]; reperfusion): 160.6; rotor rod test, ratio to before occlusion (%), Ave [1]: 78.1%
3 | CC1=NN(c2ccc(Cl)cc2)C(=O)/C1=C/c1cccc(O)c1 [compound 43, 2-(4-chloro-phenyl)-4-(3-hydroxy-benzylidene)-5-methyl-2,4-dihydropyrazol-3-one] | 3.00 | 
4 | CC1=NN(c2ccc(C)cc2)C(=O)/C1=C/c1ccc(O)c(O)c1 [compound 44, 4-(3,4-dihydroxy-benzylidene)-5-methyl-2-p-toluyl-2,4-dihydro-pyrazol-3-one] | 66.19 | 
5 | CC(=O)c1ccc(N2N=C(C)/C(=C3\C(=O)Nc4ccccc43)C2=O)cc1 [compound 45, 3-[1-(4-acetyl-phenyl)-3-methyl-5-oxo-1,5-dihydro-pyrazol-4-ylidene]-1,3-dihydro-indol-2-one] | 19.22 | 
6 | CC1=NN(c2ccc(F)cc2)C(=O)/C1=C\c1c(C)nn(-c2ccccc2C)c1O [compound 46, 2-(4-fluoro-phenyl)-4-(5-hydroxy-3-methyl-1-o-toluyl-1H-pyrazol-4-yl-methylene)-5-methyl-2,4-dihydro-pyrazol-3-one] | 15.69 | 
7 | COc1cc(/C=C2\C(=O)N(c3ccc(Cl)cc3)N=C2C(F)(F)F)ccc1O [compound 47, 2-(4-chloro-phenyl)-4-(4-hydroxy-3-methoxy-benzylidene)-5-trifluoromethyl-2,4-dihydro-pyrazol-3-one] | 28.86 | 
8 | CCc1ccc(N2N=C(C)/C(=C\c3ccc(O)cc3)C2=O)cc1 [compound 48, 2-(4-ethyl-phenyl)-4-(4-hydroxy-benzylidene)-5-methyl-2,4-dihydro-pyrazol-3-one] | 0.02 | 
9 | CC1=NN(c2ccc(S(N)(=O)=O)cc2)C(=O)C1=Cc1ccc(O)cc1 [compound 49, 4-[4-(4-hydroxy-benzylidene)-3-methyl-5-oxo-4,5-dihydro-pyrazol-1-yl]-benzenesulfonamide] | 7.09 | 
10 | CCOC(=O)c1ccc(N2N=C(C(F)(F)F)/C(=C/c3cccs3)C2=O)cc1 [compound 50, 4-(5-oxo-4-thiophene-2-yl-methylene-3-trifluoromethyl-4,5-dihydro-pyrazol-1-yl)-benzoic acid-ethyl ester] | 63.17 | 
11 | CN(C)c1ccc(/C=C2\C(=O)N(c3ccc(S(N)(=O)=O)cc3)N=C2C(F)(F)F)cc1 [compound 51, 4-[4-(4-dimethylamino-benzylidene)-5-oxo-3-trifluoromethyl-4,5-dihydro-pyrazole-1-yl]-benzenesulfonamide] | 41.68 | 
12 | O=C1/C(=C\c2ccc(O)cc2)C(C(F)(F)F)=NN1c1ccccc1 [compound 53, 4-(4-hydroxy-benzylidene)-2-phenyl-5-trifluoromethyl-2,4-dihydro-pyrazol-3-one] | 66.76 | 
13 | CC1=NN(c2ccc(C)c(C)c2)C(=O)/C1=C\c1ccc(O)cc1O [compound 54, 4-(2,4-dihydroxy-benzylidene)-2-(3,4-dimethyl-phenyl)-5-methyl-2,4-dihydro-pyrazol-3-one] | 73.48 | 
14 | COc1ccc(/C=C2/C(=O)N(c3ccccc3)N=C2C)c(OC)c1O [compound 59, 4-(3-hydroxy-2,4-dimethoxy-benzylidene)-5-methyl-2-phenyl-2,4-dihydro-pyrazol-3-one] | 5.3 | 
15 | COc1cc(/C=C2/C(=O)N(c3ccc(C(=O)OC(C)C)cc3)NC2C)ccc1O (stereo not drawn) [compound 60, 4-[4-(4-hydroxy-3-methoxy-benzylidene)-3-methyl-5-oxo-pyrazolidin-1-yl]-benzoic acid-isopropyl ester] | 9.02 | 
16 | COc1cc(/C=C2/C(=O)N(c3ccc(Cl)c(C(=O)O)c3)N=C2C)c(Cl)cc1O [compound 61, 2-chloro-5-[4-(2-chloro-4-hydroxy-5-methoxy-benzylidene)-3-methyl-5-oxo-4,5-dihydro-pyrazol-1-yl]-benzoic acid] | 46.25 | 
17 | CC1=NN(c2ccccc2)C(=O)/C1=C/N(C)C [compound 65, 4-dimethylaminomethylene-5-methyl-2-phenyl-2,4-dihydro-pyrazol-3-one] | 62.43 | 
18 | CC1=NN(c2ccccc2)C(=O)/C1=C/c1c(C)nn(-c2ccccc2)c1O [compound 66, 4-(5-hydroxy-3-methyl-1-phenyl-1H-pyrazol-4-yl-methylene)-5-methyl-2-phenyl-2,4-dihydro-pyrazol-3-one] | 15.17 | 
19 | CC1=NN(c2ccccc2)C(=O)/C1=C/c1ccc(Cl)cc1 [compound 67, 4-(4-chloro-benzylidene)-5-methyl-2-phenyl-2,4-dihydro-pyrazol-3-one] | 9.09 | 
20 | CC1=NN(c2ccccc2)C(=O)/C1=C/c1ccc(O)cc1 [compound 70, 4-(4-hydroxy-benzylidene)-5-methyl-2-phenyl-2,4-dihydro-pyrazol-3-one] | 0.04 | 
21 | CC1=NN(c2cccc(Cl)c2)C(=O)/C1=C/c1ccc(O)cc1 [compound 71, 2-(3-chloro-phenyl)-4-(4-hydroxy-benzylidene)-5-methyl-2,4-dihydropyrazol-3-one] | 4.63 | 
22 | CC1=NN(c2ccccc2)C(=O)/C1=C/c1ccc(OCc2ccccc2)cc1 [compound 72, 4-(4-benzyloxy-benzylidene)-5-methyl-2-phenyl-2,4-dihydropyrazol-3-one] | 7.63 | 
23 | CC1=NN(c2cccc(Cl)c2)C(=O)/C1=N/O [compound 73, 2-(3-chloro-phenyl)-5-methyl-2H-pyrazol-3,4-dione 4-oxym] | 66.42 | 
24 | CCOC(=O)C1=NN(c2ccccc2)/C(=C2\C(=O)N(c3ccccc3)N=C2c2ccccc2)S1 [compound 74, 5-(5-oxo-1,3-diphenyl-1,5-dihydro-pyrazol-4-ylidene)-4-phenyl-4,5-dihydro-[1,3,4]thiazole-2-carboxilic acid-ethyl este] | 87.24 | 

Source: patent US7645882B2, “Inhibitor of protein modification products formation” (priority 2003, dated 2010)
